Test results: PubChem BioAssay (NCI)
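Assay format: 96-well plates, 48-hour exposure. GI50 is the concentration that inhibits growth by half. TGI is the concentration that stops growth completely.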

Columns and labels:
Experiment in all cases: NCI tumour cell line growth inhibition, 48 h
786-0 renal = system: 786-0 renal
A498 renal = system: A498 renal
A549 NSCLC = system: A549 NSCLC
ACHN renal = system: ACHN renal
BT-549 breast = system: BT-549 breast
CAKI-1 renal = system: CAKI-1 renal
CCRF-CEM leukemia = system: CCRF-CEM leukemia
COLO 205 colon = system: COLO 205 colon
DU-145 prostate = system: DU-145 prostate
EKVX NSCLC = system: EKVX NSCLC
HCC-2998 colon = system: HCC-2998 colon
HCT-116 colon = system: HCT-116 colon
HCT-15 colon = system: HCT-15 colon
HL-60(TB) leukemia = system: HL-60(TB) leukemia
HOP-62 NSCLC = system: HOP-62 NSCLC
HOP-92 NSCLC = system: HOP-92 NSCLC
HS 578T breast = system: HS 578T breast
HT29 colon = system: HT29 colon
IGROV1 ovarian = system: IGROV1 ovarian
K-562 leukemia = system: K-562 leukemia
KM12 colon = system: KM12 colon
LOX IMVI melanoma = system: LOX IMVI melanoma
M14 melanoma = system: M14 melanoma
MALME-3M melanoma = system: MALME-3M melanoma
MCF7 breast = system: MCF7 breast
MDA-MB-231 breast = system: MDA-MB-231 breast
MDA-MB-435 = system: MDA-MB-435
MDA-MB-468 breast = system: MDA-MB-468 breast
MOLT-4 leukemia = system: MOLT-4 leukemia
NCI-H226 lung = system: NCI-H226 lung
NCI-H23 lung = system: NCI-H23 lung
NCI-H460 lung = system: NCI-H460 lung
NCI-H522 lung = system: NCI-H522 lung
NCI/ADR-RES ovarian = system: NCI/ADR-RES ovarian
OVCAR-3 ovarian = system: OVCAR-3 ovarian
OVCAR-4 ovarian = system: OVCAR-4 ovarian
OVCAR-5 ovarian = system: OVCAR-5 ovarian
OVCAR-8 ovarian = system: OVCAR-8 ovarian
PC-3 prostate = system: PC-3 prostate
RPMI-8226 leukemia = system: RPMI-8226 leukemia
RXF 393 renal = system: RXF 393 renal
SF-268 CNS = system: SF-268 CNS
SF-295 CNS = system: SF-295 CNS
SF-539 CNS = system: SF-539 CNS
SK-MEL-2 melanoma = system: SK-MEL-2 melanoma
SK-MEL-28 melanoma = system: SK-MEL-28 melanoma
SK-MEL-5 melanoma = system: SK-MEL-5 melanoma
SK-OV-3 ovarian = system: SK-OV-3 ovarian
SN12C renal = system: SN12C renal
SNB-19 CNS = system: SNB-19 CNS
SR leukemia = system: SR leukemia
SW-620 colon = system: SW-620 colon
T-47D breast = system: T-47D breast
TK-10 renal = system: TK-10 renal
U251 CNS = system: U251 CNS
UACC-257 melanoma = system: UACC-257 melanoma
UACC-62 melanoma = system: UACC-62 melanoma
UO-31 renal = system: UO-31 renal

With `COc1ccc(C(=O)/C=C/c2ccc3ccccc3c2)cc1S(N)(=O)=O` the GI50 (786-0 renal) was 1.69 µM, the TGI (786-0 renal) was 3.62 µM and the GI50 (A498 renal) was 14.6 µM. The TGI (A498 renal) was 28.2 µM, the GI50 (A549 NSCLC) was 1.99 µM and the TGI (A549 NSCLC) was 7.72 µM. It also gave a GI50 (ACHN renal) of 1.78 µM, a TGI (ACHN renal) of 3.37 µM and a GI50 (BT-549 breast) of 1.53 µM. It also gave a TGI (BT-549 breast) of 3.27 µM, a GI50 (CAKI-1 renal) of 2.12 µM and a TGI (CAKI-1 renal) of 6.17 µM. The GI50 (CCRF-CEM leukemia) was 2.63 µM, the TGI (CCRF-CEM leukemia) was 6.4 µM and the GI50 (COLO 205 colon) was 1.96 µM. The TGI (COLO 205 colon) was 4.06 µM, the GI50 (DU-145 prostate) was 3.31 µM and the TGI (DU-145 prostate) was 11.8 µM. It also gave a GI50 (EKVX NSCLC) of 6.61 µM, a TGI (EKVX NSCLC) of 20.1 µM and a GI50 (HCC-2998 colon) of 1.56 µM. The TGI (HCC-2998 colon) was 2.93 µM, the GI50 (HCT-116 colon) was 1.9 µM and the TGI (HCT-116 colon) was 4.82 µM. For the same compound, the GI50 (HCT-15 colon) was 0.574 µM, the TGI (HCT-15 colon) was 2.08 µM and the GI50 (HL-60(TB) leukemia) was 1.61 µM. For the same compound, the TGI (HL-60(TB) leukemia) was 4.11 µM, the GI50 (HOP-62 NSCLC) was 1.99 µM and the TGI (HOP-62 NSCLC) was 5.49 µM. For the same compound, the GI50 (HOP-92 NSCLC) was 1.9 µM, the TGI (HOP-92 NSCLC) was 9.2 µM and the GI50 (HS 578T breast) was 17.5 µM. For the same compound, the TGI (HS 578T breast) was 54.8 µM, the GI50 (HT29 colon) was 1.67 µM and the TGI (HT29 colon) was 3.53 µM. For the same compound, the GI50 (IGROV1 ovarian) was 2.07 µM, the TGI (IGROV1 ovarian) was 5.36 µM and the GI50 (K-562 leukemia) was 1.58 µM. For the same compound, the TGI (K-562 leukemia) was 5.45 µM, the GI50 (KM12 colon) was 1.56 µM and the TGI (KM12 colon) was 3.33 µM. It also gave a GI50 (LOX IMVI melanoma) of 1.32 µM, a TGI (LOX IMVI melanoma) of 2.59 µM and a GI50 (M14 melanoma) of 2.26 µM. For the same compound, the TGI (M14 melanoma) was 5.98 µM, the GI50 (MALME-3M melanoma) was 3.2 µM and the TGI (MALME-3M melanoma) was 14.9 µM. For the same compound, the GI50 (MCF7 breast) was 1.54 µM, the TGI (MCF7 breast) was 4.72 µM and the GI50 (MDA-MB-231 breast) was 2.5 µM. For the same compound, the TGI (MDA-MB-231 breast) was 7.51 µM, the GI50 (MDA-MB-435) was 2.4 µM and the TGI (MDA-MB-435) was 6.72 µM. The GI50 (MDA-MB-468 breast) was 1.43 µM, the TGI (MDA-MB-468 breast) was 2.9 µM and the GI50 (MOLT-4 leukemia) was 2.09 µM. The TGI (MOLT-4 leukemia) was 4.95 µM, the GI50 (NCI-H226 lung) was 2.36 µM and the TGI (NCI-H226 lung) was 8.37 µM. The GI50 (NCI-H23 lung) was 1.73 µM, the TGI (NCI-H23 lung) was 3.3 µM and the GI50 (NCI-H460 lung) was 2.96 µM. The TGI (NCI-H460 lung) was 8.84 µM, the GI50 (NCI-H522 lung) was 1.62 µM and the TGI (NCI-H522 lung) was 3.32 µM. It also gave a GI50 (NCI/ADR-RES ovarian) of 2.7 µM, a TGI (NCI/ADR-RES ovarian) of 8.21 µM and a GI50 (OVCAR-3 ovarian) of 1.58 µM. The TGI (OVCAR-3 ovarian) was 3.38 µM, the GI50 (OVCAR-4 ovarian) was 2.96 µM and the TGI (OVCAR-4 ovarian) was 10.9 µM. For the same compound, the GI50 (OVCAR-5 ovarian) was 1.75 µM, the TGI (OVCAR-5 ovarian) was 4.15 µM and the GI50 (OVCAR-8 ovarian) was 2.48 µM. For the same compound, the TGI (OVCAR-8 ovarian) was 7.04 µM, the GI50 (PC-3 prostate) was 1.78 µM and the TGI (PC-3 prostate) was 4.05 µM. It also gave a GI50 (RPMI-8226 leukemia) of 1.63 µM, a TGI (RPMI-8226 leukemia) of 4.62 µM and a GI50 (RXF 393 renal) of 1.57 µM. The TGI (RXF 393 renal) was 3.34 µM, the GI50 (SF-268 CNS) was 3.2 µM and the TGI (SF-268 CNS) was 13.3 µM. It also gave a GI50 (SF-295 CNS) of 1.88 µM, a TGI (SF-295 CNS) of 4.89 µM and a GI50 (SF-539 CNS) of 1.69 µM. For the same compound, the TGI (SF-539 CNS) was 3.15 µM, the GI50 (SK-MEL-2 melanoma) was 12.2 µM and the TGI (SK-MEL-2 melanoma) was 25.4 µM. For the same compound, the GI50 (SK-MEL-28 melanoma) was 2.13 µM, the TGI (SK-MEL-28 melanoma) was 5.14 µM and the GI50 (SK-MEL-5 melanoma) was 3.48 µM. The TGI (SK-MEL-5 melanoma) was 13.6 µM, the GI50 (SK-OV-3 ovarian) was 4.91 µM and the TGI (SK-OV-3 ovarian) was 18.6 µM. The GI50 (SN12C renal) was 1.56 µM, the TGI (SN12C renal) was 3.25 µM and the GI50 (SNB-19 CNS) was 2.15 µM. For the same compound, the TGI (SNB-19 CNS) was 5.95 µM, the GI50 (SR leukemia) was 0.867 µM and the TGI (SR leukemia) was 3.54 µM. The GI50 (SW-620 colon) was 1.78 µM, the TGI (SW-620 colon) was 3.6 µM and the GI50 (T-47D breast) was 1.76 µM. The TGI (T-47D breast) was 6.77 µM, the GI50 (TK-10 renal) was 2.04 µM and the TGI (TK-10 renal) was 8.17 µM. It also gave a GI50 (U251 CNS) of 1.19 µM, a TGI (U251 CNS) of 2.46 µM and a GI50 (UACC-257 melanoma) of 3.79 µM. It also gave a TGI (UACC-257 melanoma) of 14.5 µM, a GI50 (UACC-62 melanoma) of 1.6 µM and a TGI (UACC-62 melanoma) of 3.32 µM. It also gave a GI50 (UO-31 renal) of 1.31 µM and a TGI (UO-31 renal) of 2.58 µM.
